Source: patent US20030181426A1, “Compositions and methods for treating pain using cyclooxygenase-1 inhibitors” (priority 2002, published 2003)

Tests used:
[1] = Phase I safety trial of intrathecal ketorolac in healthy volunteers; type: in vivo, humans
[2] = test system: acute noxious heat; experiment: Heat pain testing with Peltier-controlled thermode in volunteers; type: in vivo, humans; conditions: for Pain threshold temperatures: in °C (unit assumed)
[3] = test system: noxious heat; experiment: Latency to paw withdrawal from noxious heat; type: in vivo, male Sprague-Dawley rats
Protocol: After Animal Care and Use Committee approval, adult male Sprague-Dawley rats (240-330 g; Harlan, Indianapolis, Ind.) were anesthetized with halothane. A catheter was inserted, as previously described, through a small nick in the cisterna magnum membrane into the intrathecal space and advanced 7.5 cm such that its tip lay in the lumbar intrathecal space. […] After catheter implantation, rats were housed individually with a 12 h/12 h light/dark cycle and an unlimited supply of water and food. Experiments occurred at least 6 days after surgery.

O=C(c1ccccc1)c1ccc2n1CCC2C(=O)O (stereo not drawn) [ketorolac]
headache ([1]; 0.5 mg i.t., one individual, 24 h after injection, resolved the following day): mild headache | heart rate prior to injection, range ([1]; entire group): 52-86 bpm | minimum heart rate at any time after injection, range ([1]; entire group): 45-69 bpm | heart rate prior to injection ([1]; entire group, mean ± SE): 67±2.1 bpm | minimum heart rate at any time after injection ([1]; entire group, mean ± SE): 57±1.7 bpm | heart rate ([1]; for 1 hr following ketorolac, significant within each dose group except 2.0 mg): decreased | side effects ([1]; i.t. 0.25, 0.5, 1, or 2 mg open label dose-escalation, early studies of 14 subjects): no side effects were observed | blood pressure, oxyhemoglobin saturation, end-tidal CO2 ([1]; i.t. 0.25-2 mg): did not affect | deviation of blood pressure, oxyhemoglobin saturation, end-tidal CO2 from pre-injection values ([1]; i.t. 0.25-2 mg): ≤ 10% | side effects at long-term follow up ([1]; i.t. 0.25-2 mg): no side effects | subjective neurologic symptoms ([1]; i.t. 0.25-2 mg): no subjective neurologic symptoms in any volunteer | symptomatic bradycardia ([1]; i.t. 0.25-2 mg): In no case | sedation, anxiety, gastrointestinal or genitourinary symptoms, or dizziness ([1]; i.t. 0.25-2 mg, at any time): No volunteer reported | neurologic examination ([1]; i.t. 0.25-2 mg, twenty volunteers): no effect | side effects ([1]; i.t., doses up to 1.0 mg): no side effects | temperature pain threshold ([2]; 0.5 mg i.t.): did not affect | analgesic effect to acute noxious heat (pain magnitude report) ([2]; 0.5 mg i.t., moderate and severe pain intensities, FIG. 3): apparent effect | Pain threshold temperatures ([2]; Arm, 0.25 mg i.t., 0.25 h): 45 ± 1.0 | Pain threshold temperatures ([2]; Arm, 0.25 mg i.t., 0.5 h): 44 ± 1.5 | Pain threshold temperatures ([2]; Arm, 0.25 mg i.t., 1 h): 45 ± 1.3 | Pain threshold temperatures ([2]; Arm, 0.25 mg i.t., 2 h): 44 ± 1.7 | Pain threshold temperatures ([2]; Arm, 0.25 mg i.t., 3 h): 45 ± 1.1 | Pain threshold temperatures ([2]; Arm, 0.25 mg i.t., 4 h): 44 ± 2.2 | Pain threshold temperatures ([2]; Arm, 0.25 mg i.t., 24 h): 46 ± 0.5 | Pain threshold temperatures ([2]; Arm, 0.25 mg i.t., time 0 h (injection at time 0)): 45 ± 1.1 | Pain threshold temperatures ([2]; Arm, 0.50 mg i.t., 0.25 h): 44 ± 1.9 | Pain threshold temperatures ([2]; Arm, 0.50 mg i.t., 0.5 h): 43 ± 1.2 | Pain threshold temperatures ([2]; Arm, 0.50 mg i.t., 1 h): 44 ± 1.7 | Pain threshold temperatures ([2]; Arm, 0.50 mg i.t., 2 h): 45 ± 1.9 | Pain threshold temperatures ([2]; Arm, 0.50 mg i.t., 3 h): 46 ± 1.7 | Pain threshold temperatures ([2]; Arm, 0.50 mg i.t., 4 h): 46 ± 1.7 | Pain threshold temperatures ([2]; Arm, 0.50 mg i.t., 24 h): 44 ± 1.7 | Pain threshold temperatures ([2]; Arm, 0.50 mg i.t., time 0 h (injection at time 0)): 45 ± 1.9 | Pain threshold temperatures ([2]; Arm, 1.0 mg i.t., 0.25 h): 41 ± 1.3 | Pain threshold temperatures ([2]; Arm, 1.0 mg i.t., 0.5 h): 40 ± 0.5 | Pain threshold temperatures ([2]; Arm, 1.0 mg i.t., 1 h): 39 ± 0.7 | Pain threshold temperatures ([2]; Arm, 1.0 mg i.t., 2 h): 41 ± 1.2 | Pain threshold temperatures ([2]; Arm, 1.0 mg i.t., 3 h): 42 ± 0.9 | Pain threshold temperatures ([2]; Arm, 1.0 mg i.t., 4 h): 42 ± 1.5 | Pain threshold temperatures ([2]; Arm, 1.0 mg i.t., 24 h): 41 ± 1.6 | Pain threshold temperatures ([2]; Arm, 1.0 mg i.t., time 0 h (injection at time 0)): 40 ± 0.5 | Pain threshold temperatures ([2]; Arm, 2.0 mg i.t., 0.25 h): 44 ± 1.9 | Pain threshold temperatures ([2]; Arm, 2.0 mg i.t., 0.5 h): 43 ± 1.4 | Pain threshold temperatures ([2]; Arm, 2.0 mg i.t., 1 h): 40 ± 2.1 | Pain threshold temperatures ([2]; Arm, 2.0 mg i.t., 2 h): 43 ± 1.8 | Pain threshold temperatures ([2]; Arm, 2.0 mg i.t., 3 h): 43 ± 1.6 | Pain threshold temperatures ([2]; Arm, 2.0 mg i.t., 4 h): 43 ± 1.9 | Pain threshold temperatures ([2]; Arm, 2.0 mg i.t., 24 h): 45 ± 2.3 | Pain threshold temperatures ([2]; Arm, 2.0 mg i.t., time 0 h (injection at time 0)): 44 ± 1.3 | Pain threshold temperatures ([2]; Leg, 0.25 mg i.t., 0.25 h): 45 ± 1.1 | Pain threshold temperatures ([2]; Leg, 0.25 mg i.t., 0.5 h): 46 ± 1.1 | Pain threshold temperatures ([2]; Leg, 0.25 mg i.t., 1 h): 47 ± 0.7 | Pain threshold temperatures ([2]; Leg, 0.25 mg i.t., 2 h): 46 ± 1.5 | Pain threshold temperatures ([2]; Leg, 0.25 mg i.t., 3 h): 45 ± 1.1 | Pain threshold temperatures ([2]; Leg, 0.25 mg i.t., 4 h): 46 ± 0.9 | Pain threshold temperatures ([2]; Leg, 0.25 mg i.t., 24 h): 45 ± 1.1 | Pain threshold temperatures ([2]; Leg, 0.25 mg i.t., time 0 h (injection at time 0)): 45 ± 1.3 | Pain threshold temperatures ([2]; Leg, 0.50 mg i.t., 0.25 h): 46 ± 2.4 | Pain threshold temperatures ([2]; Leg, 0.50 mg i.t., 0.5 h): 48 ± 2.2 | Pain threshold temperatures ([2]; Leg, 0.50 mg i.t., 1 h): 46 ± 1.7 | Pain threshold temperatures ([2]; Leg, 0.50 mg i.t., 2 h): 46 ± 2.5 | Pain threshold temperatures ([2]; Leg, 0.50 mg i.t., 3 h): 46 ± 1.7 | Pain threshold temperatures ([2]; Leg, 0.50 mg i.t., 4 h): 46 ± 2.4 | Pain threshold temperatures ([2]; Leg, 0.50 mg i.t., 24 h): 45 ± 2.0 | Pain threshold temperatures ([2]; Leg, 0.50 mg i.t., time 0 h (injection at time 0)): 45 ± 1.4 | Pain threshold temperatures ([2]; Leg, 1.0 mg i.t., 0.25 h): 42 ± 1.7 | Pain threshold temperatures ([2]; Leg, 1.0 mg i.t., 0.5 h): 42 ± 0.5 | Pain threshold temperatures ([2]; Leg, 1.0 mg i.t., 1 h): 44 ± 0.5 | Pain threshold temperatures ([2]; Leg, 1.0 mg i.t., 2 h): 42 ± 1.5 | Pain threshold temperatures ([2]; Leg, 1.0 mg i.t., 3 h): 43 ± 1.0 | Pain threshold temperatures ([2]; Leg, 1.0 mg i.t., 4 h): 43 ± 1.1 | Pain threshold temperatures ([2]; Leg, 1.0 mg i.t., 24 h): 42 ± 0.9 | Pain threshold temperatures ([2]; Leg, 1.0 mg i.t., time 0 h (injection at time 0)): 41 ± 1.3 | Pain threshold temperatures ([2]; Leg, 2.0 mg i.t., 0.25 h): 45 ± 1.4 | Pain threshold temperatures ([2]; Leg, 2.0 mg i.t., 0.5 h): 43 ± 1.3 | Pain threshold temperatures ([2]; Leg, 2.0 mg i.t., 1 h): 44 ± 2.1 | Pain threshold temperatures ([2]; Leg, 2.0 mg i.t., 2 h): 44 ± 2.3 | Pain threshold temperatures ([2]; Leg, 2.0 mg i.t., 3 h): 43 ± 1.6 | Pain threshold temperatures ([2]; Leg, 2.0 mg i.t., 4 h): 44 ± 1.8 | Pain threshold temperatures ([2]; Leg, 2.0 mg i.t., 24 h): 45 ± 2.2 | Pain threshold temperatures ([2]; Leg, 2.0 mg i.t., time 0 h (injection at time 0)): 45 ± 1.6 | response to suprathreshold stimuli ([2]; any dose (0.25-2 mg i.t.)): no effect | threshold to heat pain in either the arm or the leg ([2]; i.t. 0.25-2 mg): unaffected | analgesia to acute noxious heat ([2]; i.t., doses up to 1.0 mg): several hours of analgesia | antinociception (latency to paw withdrawal from noxious heat) ([3]; addition of ketorolac to clonidine): increased antinociception | antinociception (latency to paw withdrawal from noxious heat) ([3]; drug alone, rats with intrathecal catheter): did not | withdrawal threshold to noxious heat ([3]; i.t. ketorolac, rats): lack of effect
